In US20260218197A1, “EXTRACELLULAR VESICLE SECRETION REDUCING AGENT FOR REDUCING EXTRACELLULAR VESICLE SECRETION, AND USE OF THE SAME” (THEORIA SCIENCE INC., priority 2020, published 2026):

Key:
[1] = tested on: colorectal cancer cells HCT116; experiment: Amount of secreted EVs by the NTA method; assay type: cell-based, human; details: HCT116, 2.5 μmol/L, 48 hours, serine-deficient medium, compared with NC (DMSO)
Procedure: (§1) The cultured cancer cells were washed with phosphate buffered saline (PBS), and the medium was replaced with advanced RPMI or advanced DMEM containing the above-described antibiotic-antimycotic agent and 2 mmol/L L-glutamine (Gibco). The adjusted culture solution after the replacement was centrifuged at 2,000×g for 10 minutes to remove the cells, and the supernatant obtained was filtered through a 0.22 μm filter (Millipore). The resulting filtrate was centrifuged at 110,000×g for 70 minutes, whereby pellets containing concentrated EVs were obtained. The pellets were washed with 11 mL of PBS, further ultracentrifuged at 110,000×g for 70 minutes, and collected again.
(§2) The secreted EVs were collected and then suspended in PBS. […] An EV concentration was calculated as particles/cells in the culture solution, whereby a net EV secretion rate was obtained. […]
(§3) In a 6-well plate, 2 mL of the cancer cell suspension was seeded at 1.0×10^5 cells/well and incubated for 24 hours. […] 48 hours after the replacement, total RNA was extracted, and the expression of the gene of interest was measured by qPCR.
(§4) Colorectal cancer cells HCT116 and lung cancer cells A549 were each transfected with miR-891b. […] Then, according to the ExoScreen method described above, the amounts of the secreted EVs were measured by measuring the signal intensities. […]

lung cancer cells A549 = experiment: Amount of secreted EVs by the NTA method; assay type: cell-based, human; details: A549, 2.5 μmol/L, 48 hours, serine-deficient medium, compared with NC (DMSO)
Procedure: as §1, §2, §3, §4

SMILES: Cc1cc(C)nc(NC(=S)N2CCN(Cc3ccc(C(F)(F)F)cc3)CC2)c1 [NCT-503]
- amount of EVs in the media (NTA, relative to negative control = 1) [1]: smaller
- amount of EVs in the media (NTA, relative to negative control = 1) (lung cancer cells A549): smaller
